Experimental data taken from paper PMC8063965 (Journal of medicinal chemistry, 2021).
Values belong to the molecule of their own block, whether it stands above or below them.

Tests used:
[1] = target: T1, HDAC6 (Homo sapiens, UniProt Q9UBN7); experiment: Intact mass spectrometry analysis of the enzyme; details: intact mass spectrometry on treatment with compound
T1 sequence (Q9UBN7 1-1215): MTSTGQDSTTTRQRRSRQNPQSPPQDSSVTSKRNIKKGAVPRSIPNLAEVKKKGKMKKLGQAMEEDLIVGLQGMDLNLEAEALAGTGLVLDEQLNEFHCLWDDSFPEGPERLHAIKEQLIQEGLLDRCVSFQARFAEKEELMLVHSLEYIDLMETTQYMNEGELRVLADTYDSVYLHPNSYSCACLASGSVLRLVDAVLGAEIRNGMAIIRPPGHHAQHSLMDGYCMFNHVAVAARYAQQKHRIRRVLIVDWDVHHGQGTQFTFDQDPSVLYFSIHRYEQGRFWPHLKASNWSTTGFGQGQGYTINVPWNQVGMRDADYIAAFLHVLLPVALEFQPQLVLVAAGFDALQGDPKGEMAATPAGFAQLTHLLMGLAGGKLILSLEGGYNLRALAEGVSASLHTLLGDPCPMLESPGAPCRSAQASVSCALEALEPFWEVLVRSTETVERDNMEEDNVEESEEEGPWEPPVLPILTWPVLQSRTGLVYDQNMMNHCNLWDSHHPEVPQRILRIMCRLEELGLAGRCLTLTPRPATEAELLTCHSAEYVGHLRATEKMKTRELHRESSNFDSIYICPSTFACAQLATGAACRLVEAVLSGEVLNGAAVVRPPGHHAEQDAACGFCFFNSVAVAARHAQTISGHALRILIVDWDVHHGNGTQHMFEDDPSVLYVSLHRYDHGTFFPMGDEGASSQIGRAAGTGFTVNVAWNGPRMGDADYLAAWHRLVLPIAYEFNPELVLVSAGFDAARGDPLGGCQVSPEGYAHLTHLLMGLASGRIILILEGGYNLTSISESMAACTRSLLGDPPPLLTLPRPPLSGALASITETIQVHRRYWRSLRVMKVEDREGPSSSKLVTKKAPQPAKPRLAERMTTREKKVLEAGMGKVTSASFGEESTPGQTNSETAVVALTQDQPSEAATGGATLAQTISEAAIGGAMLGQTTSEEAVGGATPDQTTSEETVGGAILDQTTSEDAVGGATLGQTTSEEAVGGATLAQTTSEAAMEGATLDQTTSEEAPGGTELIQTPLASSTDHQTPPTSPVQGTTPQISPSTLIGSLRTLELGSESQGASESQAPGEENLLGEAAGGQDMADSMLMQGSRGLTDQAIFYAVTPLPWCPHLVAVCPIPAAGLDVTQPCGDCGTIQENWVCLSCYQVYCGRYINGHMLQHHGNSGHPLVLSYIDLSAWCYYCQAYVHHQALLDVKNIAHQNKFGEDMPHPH

[2] = Pooled human whole blood stability assay; format: in vitro ADME; details: triplicate
[3] = target: T2, drHDAC6 CD2 (Danio rerio, UniProt F8W4B7); experiment: Fluorescence polarization; format: binding, Danio rerio (zebrafish); details: orthogonal fluorescence polarization assay
T2 sequence (F8W4B7 440-798 limits assumed): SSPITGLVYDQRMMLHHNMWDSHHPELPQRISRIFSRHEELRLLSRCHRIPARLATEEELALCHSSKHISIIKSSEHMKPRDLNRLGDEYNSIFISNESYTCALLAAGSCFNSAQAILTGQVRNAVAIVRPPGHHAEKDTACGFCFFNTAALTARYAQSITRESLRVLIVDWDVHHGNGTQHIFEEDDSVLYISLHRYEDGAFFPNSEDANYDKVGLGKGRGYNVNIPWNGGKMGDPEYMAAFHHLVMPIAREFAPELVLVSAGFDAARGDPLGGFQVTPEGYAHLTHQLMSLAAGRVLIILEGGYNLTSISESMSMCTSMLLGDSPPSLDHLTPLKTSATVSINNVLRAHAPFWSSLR

[4] = tested on: Ac-histone in HeLa cells; experiment: Immunofluorescence assay, Ac-histone; format: cell-based; details: 0.1 μM or 2 μM, 6 h
[5] = tested on: six leukemic cancer cells; experiment: Cytotoxicity assay; format: cell-based; details: 72 h, read-out: average anti-proliferative IC50
[6] = tested on: MV4–11 cells; experiment: FACS apoptosis detection assay; format: cell-based
[7] = tested on: Ac-histone H3 in MV4–11 cells; experiment: Western blot of Ac-histones; format: cell-based
[8] = tested on: Ac-α-tubulin in MV4–11 cells; experiment: Western blot of Ac-α-tubulin; format: cell-based
[9] = Mouse plasma stability assay; format: in vitro ADME; details: triplicate
[10] = tested on: Ac-α-tubulin in HeLa cells; experiment: Immunofluorescence assay, Ac-α-tubulin; format: cell-based; details: 6 h
[11] = tested on: 'normal' MRC9 lung fibroblasts; experiment: Cytotoxicity assay; format: cell-based; details: 72 h
[12] = tested on: MV4–11 cells; experiment: Detection of ROS generation; format: cell-based; details: MV4–11, 10 μM, up to 4 h, versus DMSO control
[13] = target: T3, full-length hHDAC6 (Homo sapiens, UniProt Q9UBN7); experiment: EMSA activity-based inhibition assay, HDAC6; format: biochemical; details: for fold improvement of potency on moving the fluorine substituent: ortho- and meta-fluoro versus parent analog, selectivity was lost
T3 sequence (Q9UBN7 1-1215): T1 sequence (Q9UBN7 1-1215)

SMILES: O=C(NO)c1ccc(CN(Cc2cccnc2)S(=O)(=O)c2cc(F)c(F)c(F)c2F)cc1 [TO-317]
covalent modification of the enzyme [1]: no covalent modification of the enzyme was observed | Remaining percentage concentration, 0 min [2]: 100% | potency of interaction with drHDAC6 CD2 (FP) [3]: 4 nM | levels of Ac-histone (green stain) [4]: do not change significantly | IC50 [5]: < 2000 nM | early and late apoptotic cell populations, combined ([6]; MV4–11, 0.25 μM): 11% | early and late apoptotic cell populations, combined ([6]; MV4–11, 2 μM): 65% | early and late apoptotic cell populations, combined ([6]; MV4–11, 4 μM): 73% | necrosis (UL sub-population) ([6]; MV4–11, across the range of concentrations tested, versus DMSO control): does not show statistically different changes to necrosis | Ac-histones accumulation ([7]; MV4–11 cells, at 0.25 μM, 6 hours): minimal accumulation | concentration required to observe distinct acetylation of H3 histone ([7]; cells not given): ~ 0.75 μM | Ac-α-tubulin levels at 0.25 μM ([8]; MV4–11 cells, 0.25 μM, 6 hours): significant increase | lowest concentration giving preferential increase in acetylated α-tubulin ([8]; dose-dependent, cells not given): 50 nM | Remaining percentage concentration, 0 min [9]: 100% | accumulation of Ac-α-tubulin (red stain) at 2 μM [10]: significant accumulation | activity in normal cells [11]: minimal activity | ROS generation [12]: markedly increased levels of ROS after 2 h incubation

fold improvement of potency on moving the fluorine substituent [13]: 2 fold
SMILES: O=C(NO)c1ccc(CN(Cc2ccccc2F)S(=O)(=O)c2cc(F)c(F)c(F)c2F)cc1 [Compound 13]

fold more potent against HDAC6 compared to 9 ([13]; relative to 9): 2 fold
SMILES: O=C(NO)c1ccc(CN(Cc2ccccn2)S(=O)(=O)c2cc(F)c(F)c(F)c2F)cc1 [Compound 14]

HDAC6 selectivity ([13]; against 4 representative HDAC homologs (Table 1)): > 71 fold
SMILES: O=C(NO)c1ccc(CN(Cc2ccncc2)S(=O)(=O)c2c(F)c(F)c(F)c(F)c2F)cc1 [Compound 8]

SMILES: O=C(CCCCCCNC(=O)c1cnc(N(c2ccccc2)c2ccccc2Cl)nc1)NO [Citarinostat, reference compound]
accumulation of Ac-α-tubulin (red stain) at 2 μM [10]: slightly less prominent

fold improvement of potency on moving the fluorine substituent [13]: 2 fold
SMILES: O=C(NO)c1ccc(CN(Cc2cccc(F)c2)S(=O)(=O)c2cc(F)c(F)c(F)c2F)cc1 [Compound 12]
